Read-outs that look alike come from different tables or passages of the source.
Key:
[1] = test system: PC3; assay: Cells with greater than 4N DNA by flow cytometry, PC3
Experimental: (§1) A2780, A375, PC-3 and SK-MEL-2 cells were seeded at 2×10^4 cells/ml and grown on 6 well cell culture dishes overnight at 37° C. with 5% CO2. […] At the relevant time points cells were harvested with trypsin ethylenediaminetetraacetic acid (EDTA) 1× (Gibco/Invitrogen [Carlsbad, Calif., USA]), washed once with phosphate-buffered saline (PBS), fixed in 70% ethanol and stored at −20° C. for at least 24 hours. The cells were washed once more in PBS, then resuspended in 50 μg/ml propidium iodide (Invitrogen, [Carlsbad, Calif., USA]) and 30 μg/ml ribonuclease (RNAse) A (Sigma [St Louis, Mo., USA]) in PBS and incubated for 30 minutes at room temperature protected from light. Cell cycle distributions were determined by measuring deoxyribonucleic acid (DNA) content using flow cytometry on a FACS Canto II flow cytometer (Becton Dickinson [San Jose, Calif., USA]) and samples were analyzed using [sequence] software (Becton Dickinson [San Jose, Calif., USA]).

[2] = test system: NCI-H23 Non Small Cell Lung Carcinoma Xenografts; assay: Anti-tumor activity in female nude mice bearing NCI-H23 xenografts; details: for TGI: Day 99; for TFS (tumor-free survivors): Day 135, n=8
Experimental: MLN8237 was prepared in 10% hydroxypropyl-beta-cyclodextrin (HP-β-CD) (Sigma, St. Louis, Mo., USA)+1% NaHCO3 (Sigma, St. Louis, Mo., USA) every 5 days and stored at approximately 25° C. in the dark.
5.0×10^6 NCI-H23 cells/animal (0.1 ml injection volume) were implanted SC into the right flank of Balb/c nude mice.
Experimental Design: 7-9 week old female Balb/c nude mice were inoculated subcutaneously in the flank (cell suspension) with 5.0×10^6 NCI-H23 cells. Tumor growth was monitored with vernier calipers. The mean tumor volume was calculated using the formula V=W^2×L/2. When the mean tumor volume (MTV) reached approximately 105 mm^3, the animals were randomized into 8 treatment groups (n=8/group). […] Tumor growth and body weight were measured twice per week. Tumor growth inhibition and body weight change were calculated on Day 99 of treatment.
Antitumor activity was determined by calculating the percent TGI ([mean tumor volume of the control group−mean tumor volume of a treated group]/mean tumor volume of the control group) on Day 99. Treatment started on Day 1 for 21 days. […] The use of Day 99 allows us to evaluate tumor response and statistically compare the ΔAUC for each group over the regrowth period.
Additional endpoints used to evaluate efficacy were: complete and partial tumor response CR and PR), and the number of tumor-free survivors (TFS) at the end of the study.
Statistical Analysis: Statistical analysis was performed with a linear mixed effects regression model. This model takes into account the differences in trends of tumor growth between control and treated samples. Differences among mice were treated as random effects, and a compound symmetry covariance structure was used to model the variability between repeated tumor measurements on each mouse. Treatment comparisons were performed by using the fitted curves from the model to calculate the changes in the areas under the tumor volume-versus-time curves (ΔAUCs). The significance of the ΔAUC was assessed using permutation testing. P-values <0.05 were considered significant.
The change in AUC relative to the control was calculated for both single agent treatment groups as well as the combination group.

[3] = test system: A375; assay: BrdU proliferation assay, A375; details: Homo sapiens, A-375, 96 h
Experimental: (§2) A2780, A375, PC-3, and SK-MeI-2 human tumor cell lines were seeded at 2.0×10^3, 1.0×10^3, 4.0×10^3 and 2.0×10^3 cells per well, respectively, in 80 μL of the appropriate cell culture growth media. Plating densities were chosen to ensure optimal linear growth over 120 hours. After 20 hours, 10 μL of each compound was added to the cells in a matrix with dose responses of both agents. […] Each matrix was generated in triplicate with each replicate on a separate plate.
(§3) Cell proliferation of each cell line was measured using the cell proliferation enzyme-linked immunosorbent assay (ELISA), 5-bromo-2-deoxyuridine (BrdU) colorimetric kit according to the manufacturer's instructions (Roche [Mannheim, Germany]). The assay measures cell proliferation by quantifying BrdU incorporation into replicating deoxyribonucleic acid (DNA). Briefly, each well was incubated with 10 μL of BrdU labeling reagent for 2 hours at 37° C. in a humidified cell culture chamber. After aspiration of the labeling media, the plates were wrapped in foil and kept at 4° C. to assay at a future time. The cells were fixed and denatured by adding 100 µL of ethanol to each well and incubated for 30 minutes at room temperature. The ethanol was aspirated and 50 μl of blocking reagent (Roche [Mannheim, Germany]) was added to the cells and incubated for 30 minutes. 100 μL of peroxidase-conjugated anti BrdU antibody ([anti-BrdU-POD]; 1:100 in antibody dilution buffer) was added to the cells. The cells were incubated with the antibody for 120 minutes at room temperature. The cells were then washed 2× with 150 μL of wash buffer per well and 100 μL of tetramethyl benzidine was then added. The cells were incubated for 15 to 30 minutes at room temperature prior to spectrophotometric analysis. A SpectraMax Plus 384 plate reader (Molecular Devices [Sunny Vale Calif., USA]) or WALLAC 1420 Workstation (Perkin Elmer [Turku, Finland]) were used to measure the absorbance of each well at 395 or 405 nm, respectively, depending on the machine used. The A2780 and A375 cell lines were measured using the SpectraMax Plus at 395 nm, while the PC-3 and SK-Mel-2 cell lines were measured using the WALLAC 1420 Workstation at 405 nm. Analysis of the data was performed using GraphPad Prism 5.0.

[4] = test system: SKMEL-2; assay: BrdU proliferation assay, SKMEL-2; details: Homo sapiens, SK-MEL-2, 96 h
Experimental: as §2, §3

[5] = test system: A375; assay: Cells with greater than 4N DNA by flow cytometry, A375
Experimental: as §1

[6] = test system: A2780; assay: Cells with greater than 4N DNA by flow cytometry, A2780
Experimental: as §1

[7] = test system: Panc-1 Human Pancreatic Carcinoma Xenografts; assay: Antitumor activity in female nude mice bearing Panc-1 xenografts; details: MLN8237 30 mg/kg QD for 21 days (oral per title; b268 prints SC); Day 63; p<0.001 vs vehicle
Experimental: Experimental Design: Low passage (passage TC08) Panc-1 cells (ATCC, Manassas, Va., USA) were grown in Roswell Park Memorial Institute (RPMI)-1640 (ATCC, Manassas, Va., USA) 10% Fetal Bovine Serum (PAA Laboratories PTY LTD, Morningside, QLD, Australia) and supplied at a concentration of 5.0×10^7 cells/mLl in Dulbecco's phosphate-buffered saline (DPBS) (Invitrogen-Gibco, Grand Island, N.Y., USA). Cells were mixed 1:1 with Matrigel support (BD Biosciences, Bedford, Mass., USA) and 5.0×10^6 Panc-1 cells/animal (0.2 mL injection volume) were implanted SC into the right flank of female Balb/c nude mice.
Tumor growth was monitored twice weekly using calipers and the mean tumor volume was calculated using the formula (0.5×[length×width^2]). […] Tumor size and body weight were measured twice weekly and the study was terminated on Day 63 when tumors in the control group reached approximately 1127.8 mm^3. Tumor volumes and BW of animals in the combination treatment group were monitored up to Day 111.
Antitumor activity was determined by calculating the percent TGI ([mean tumor volume of the control group—mean tumor volume of a treated group]/mean tumor volume of the control group) on Day 63. Treatment started on Day 1 and lasted through Day 21. Maximum percent BWL was evaluated during the treatment period (Day 1-Day 21). […]

[8] = test system: A2780 cells; assay: Quantification of sub-diploid cells by flow cytometry; details: A2780, 96 hours, single agents: TAK-733 50 nM or 200 nM, MLN8237 20 nM (50 nM MLN8237 sample was the exception), FIG. 2A
Experimental: Sub-diploid cells were gated as those with a lower level of propidium iodide fluorescence than cells with 2N DNA content.
as §1

[9] = test system: SKMEL-2; assay: Cells with greater than 4N DNA by flow cytometry, SKMEL-2
Experimental: as §1

[10] = test system: PC-3; assay: BrdU proliferation assay, PC-3; details: Homo sapiens, PC-3, 96 h
Experimental: as §2, §3

[11] = test system: A2780; assay: BrdU proliferation assay, A2780; details: Homo sapiens, A2780, 96 h
Experimental: as §2, §3

[12] = MLN8237 30 mg/kg PO for 21 days, mice of 8

COc1cc(Nc2ncc3c(n2)-c2ccc(Cl)cc2C(c2c(F)cccc2OC)=NC3)ccc1C(=O)[O-].O.[Na+] [MLN8237]
Percentage of cells with greater than 4N DNA ([1]; PC3, 24 Hr, DMSO 10.5): 21% | Percentage of cells with greater than 4N DNA ([1]; PC3, 48 Hr, DMSO 10.7): 30.5% | TGI ([2]; MLN8237 20 mg/kg PO QD for 21 days, p>0.05 vs control): 43.4% | TFS (tumor-free survivors) ([2]; MLN8237 20 mg/kg PO QD for 21 days): 2 | CR (complete tumor response) ([2]; MLN8237 20 mg/kg PO QD for 21 days, mice of 8): 2 of 8 | TGI ([2]; MLN8237 30 mg/kg PO for 21 days, p<0.05 vs vehicle): 73.3% | TFS (tumor-free survivors) ([2]; MLN8237 30 mg/kg PO for 21 days): 2 | CR (complete tumor response) [2, 12]: 4 of 8 | PR (partial tumor response) [2, 12]: 4 of 8 | IC50 ([3]; read-out: MLN8237 IC50, A375, TAK-733 0.0 nM): 0.059 µM | IC50 ([3]; read-out: MLN8237 IC50, A375, TAK-733 0.0001 nM): 0.073 µM | IC50 ([3]; read-out: MLN8237 IC50, A375, TAK-733 0.001 nM): 0.063 µM | IC50 ([3]; read-out: MLN8237 IC50, A375, TAK-733 0.01 nM): 0.058 µM | IC50 ([3]; read-out: MLN8237 IC50, A375, TAK-733 0.1 nM): 0.062 µM | IC50 ([3]; read-out: MLN8237 IC50, A375, TAK-733 1 nM): 0.065 µM | IC90 ([3]; read-out: MLN8237 IC90, A375, TAK-733 0.0 nM): 0.53 µM | IC90 ([3]; read-out: MLN8237 IC90, A375, TAK-733 0.0001 nM): 0.554 µM | IC90 ([3]; read-out: MLN8237 IC90, A375, TAK-733 0.001 nM): 0.408 µM | IC90 ([3]; read-out: MLN8237 IC90, A375, TAK-733 0.01 nM): 0.882 µM | IC90 ([3]; read-out: MLN8237 IC90, A375, TAK-733 0.1 nM): 0.325 µM | IC90 ([3]; read-out: MLN8237 IC90, A375, TAK-733 1 nM): > 5 µM | IC50 ([4]; read-out: MLN8237 IC50, SKMEL-2, TAK-733 0.0 nM): 0.067 µM | IC50 ([4]; read-out: MLN8237 IC50, SKMEL-2, TAK-733 0.01 nM): 0.066 µM | IC50 ([4]; read-out: MLN8237 IC50, SKMEL-2, TAK-733 0.1 nM): 0.054 µM | IC50 ([4]; read-out: MLN8237 IC50, SKMEL-2, TAK-733 1 nM): 0.048 µM | IC50 ([4]; read-out: MLN8237 IC50, SKMEL-2, TAK-733 10 nM): 0.016 µM | IC90 ([4]; read-out: MLN8237 IC90, SKMEL-2, TAK-733 0.0 nM): > 5 µM | IC90 ([4]; read-out: MLN8237 IC90, SKMEL-2, TAK-733 0.01 nM): > 5 µM | IC90 ([4]; read-out: MLN8237 IC90, SKMEL-2, TAK-733 0.1 nM): > 5 µM | IC90 ([4]; read-out: MLN8237 IC90, SKMEL-2, TAK-733 1 nM): > 5 µM | IC90 ([4]; read-out: MLN8237 IC90, SKMEL-2, TAK-733 10 nM): 0.309 µM | Percentage of cells with greater than 4N DNA ([5]; A375, 24 Hr, DMSO 0.9): 16% | Percentage of cells with greater than 4N DNA ([5]; A375, 48 Hr, DMSO 1.4): 18.6% | Percentage of cells with greater than 4N DNA ([6]; A2780, 24 Hr, DMSO 1.7): 9.6% | Percentage of cells with greater than 4N DNA ([6]; A2780, 48 Hr, DMSO 2.2): 13% | TGI [7]: −6.4% | percentage of sub-diploid cells relative to DMSO [8]: neither TAK-733 nor MLN8237 caused appreciable increases | Percentage of cells with greater than 4N DNA ([9]; SKMEL-2, 24 Hr, DMSO 3.1): 14.5% | Percentage of cells with greater than 4N DNA ([9]; SKMEL-2, 48 Hr, DMSO 2.7): 36.4% | IC50 ([10]; read-out: MLN8237 IC50, PC-3, TAK-733 0.0 nM): 0.134 µM | IC50 ([10]; read-out: MLN8237 IC50, PC-3, TAK-733 16 nM): 0.084 µM | IC50 ([10]; read-out: MLN8237 IC50, PC-3, TAK-733 80 nM): 0.093 µM | IC50 ([10]; read-out: MLN8237 IC50, PC-3, TAK-733 400 nM): 0.1 µM | IC50 ([10]; read-out: MLN8237 IC50, PC-3, TAK-733 2000 nM): 0.074 µM | IC90 ([10]; read-out: MLN8237 IC90, PC-3, TAK-733 0.0 nM): > 5 µM | IC90 ([10]; read-out: MLN8237 IC90, PC-3, TAK-733 16 nM): > 5 µM | IC90 ([10]; read-out: MLN8237 IC90, PC-3, TAK-733 80 nM): 1.06 µM | IC90 ([10]; read-out: MLN8237 IC90, PC-3, TAK-733 400 nM): 0.89 µM | IC90 ([10]; read-out: MLN8237 IC90, PC-3, TAK-733 2000 nM): 0.569 µM | IC50 ([11]; read-out: MLN8237 IC50, A2780, TAK-733 0.0 nM): 0.043 µM | IC50 ([11]; read-out: MLN8237 IC50, A2780, TAK-733 0.64 nM): 0.034 µM | IC50 ([11]; read-out: MLN8237 IC50, A2780, TAK-733 3.2 nM): 0.029 µM | IC50 ([11]; read-out: MLN8237 IC50, A2780, TAK-733 16 nM): 0.019 µM | IC50 ([11]; read-out: MLN8237 IC50, A2780, TAK-733 80 nM): 0.011 µM | IC90 ([11]; read-out: MLN8237 IC90, A2780, TAK-733 0.0 nM): > 5 µM | IC90 ([11]; read-out: MLN8237 IC90, A2780, TAK-733 0.64 nM): > 5 µM | IC90 ([11]; read-out: MLN8237 IC90, A2780, TAK-733 3.2 nM): 0.288 µM | IC90 ([11]; read-out: MLN8237 IC90, A2780, TAK-733 16 nM): 0.028 µM | IC90 ([11]; read-out: MLN8237 IC90, A2780, TAK-733 80 nM): 0.046 µM

— patent publication US9629850B2, “Combination of MEK inhibitors and selective inhibitors of Aurora A kinase” (priority 2011, dated 2017)
